# In patent US11549950B2, “Cryptic metabolites and method for activating silent biosynthetic gene clusters in diverse microorganisms” (The Trustees of Princeton University, priority 2017, dated 2023):
# Key:
# Format in all cases: cell-based
# [1] = system: Amycolaptopsis sp. B-24117; test: LAESI-MS elicitor screen (FIG. 20); conditions: concentration of 30 μM each
# Procedure: In another example, to commence a screen, Amycolaptopsis sp. B-24117 spore stocks were used to inoculate 100 mL of R4 medium in a 500 mL Erlenmeyer flask (approx. 10^6 spores). These were grown overnight and then dispensed into 5×95 CORNING® COSTAR® 96 well cell culture plates using a BioTek MULTIFLO™ microplate dispenser. 150 μL was dispensed into each well, which were then supplemented with each 1 μL from the Natural Products small molecule library (Enzo Scientific). The plates were grown again at 30° C. and 250 rpm for 4 days before being imaged using a Laser Ablation Electrospray Mass Spectrometer (LAESI-MS), which consisted of a Protea Biosciences LAESI® DP-1000 module coupled to a THERMO SCIENTIFIC™ LTQ mass spectrometer. Imaging of each plate was conducted as per manufacturer instructions using 1:1 MeCN/water at a flow rate of 1 μL/min to ablate the samples into the mass spectrometer. The spectrum was collected for 8 seconds per well. The data were then analyzed using ProteaPlot software, searching for mass ions that were induced by elicitors and absent in untreated samples. Referring to FIG. 20, this led to identification of a mass ion (reference 230, m/s 1810, keratinimicin A).
# [2] = system: Pseudomonas protegens Pf-5; test: HiTES-IMS elicitor screen and flask validation, orfamide production; conditions: for elicitation of orfamide production: HiTES-IMS, 502-member natural products library, 96-well plates
# Procedure: In one example, P. protegens was streaked out onto an LB-agar plate from frozen culture stocks and grown at 30° C. overnight. Colonies were used to inoculate 5 mL of LB in a 14 mL sterile culture tube, which was cultured 12-13 h at 30° C./250 rpm. The overnight culture was then used to inoculate 550 mL LB in a sterile Erlenmeyer flask to an initial optical density at 600 nm (OD600 nm) of 0.01. The culture was distributed into six sterile, deep-well 96-well plates (0.9 mL per well) using a MultiFlo Microplate Dispenser (BioTek). Subsequently, elicitors were added from a commercially-available 502-member natural products library (Enzo Scientific, cat #BML-2865) using a CyBi-Well automated liquid transfer robot (CyBio). Each well received 2.5 μL of an elicitor (from a stock concentration of 10 mM). The plates were sealed with air-permeable membranes and grown at 25° C./200 rpm. After 44 h, the plates were spun down, supernatants loaded onto a 96-well Strata C8-resin (Phenomenex), and the material eluted with 600 μL of 50% and 600 μL 100% MeCN into fresh 96 well plates. The eluates were then dried in a speedvac and resuspended in 30 μL of 40% MeCN (in water).
# In one example, a laser ablation electrospray ionization (LAESI) DP1000 system (Protea Bioscience) coupled to a LTQ XL mass spectrometer (Thermo) was used for IMS analysis. The extension tube connecting the two instruments was kept at 130° C. with an external heater and the sample stage was kept at 10° C. during analysis. Sheath gas flow was set to 2.0 L/h. […]
# As another example, Orfamides are lowly-expressed metabolites isolated from Pseudomonas protegens Pf-5 (hereafter P. protegens). […] The resulting metabolomes were analyzed using laser ablation-coupled electrospray ionization MS (LAESI-MS), an emerging method in which a mid-IR laser beam generates an ablation plume of metabolites that are ionized by an electrospray and introduced into the mass spectrometer. […] No signals were detected below m/z 1250 and above m/z 1650. […]
# [3] = system: Amycolatopsis keratiniphila NRRL B24117; test: HiTES-IMS elicitor screen and validation, cryptic metabolites of A. keratiniphila; conditions: for induction of compound with m/z 1286 / induction of compound with m/z 1425 / elicitation of keratinimicin A (m/z 1811) synthesis: HiTES-IMS, 502-member natural products library; for elicitation of keratinimicin A and keratinicyclin B, follow-up experiments: 7.8 μM vincamine, 2 μM Dhe, HR-MS
# Procedure: (§1) In other examples, freshly-collected spores of S. canus or A. keratiniphila (˜10^7) were transferred to 50 mL YEME medium (3% (w/v) yeast extract, 5% peptone, 3% malt extract, 1% glucose, 34% sucrose, and 5 mM MgCl2.6H2O) in a 250 mL Erlenmeyer flask fitted with a stainless-steel spring and cultured at 30° C./250 rpm for 3 days. Mycelia were then collected by centrifugation (10 min, 3000 g, RT) and diluted into 300 mL of R4 medium to give a final concentration of 0.05% (w/v). R4 medium^1 consisted of 0.5% (w/v) glucose, 0.1% yeast extract, 0.5% MgCl2.6H2O, 0.2% CaCl2.2H2O, 0.15% proline, 0.118% valine, 0.28% TES, 50 mg/L casamino acid, 100 mg/L K2SO4, and 1× trace element solution, which contains 40 mg/L ZnCl2, 200 mg/L FeCl3.6H2O, 10 mg/L CuCl2.2H2O, 10 mg/L MnCl2.4H2O, 10 mg/L Na2B4O7.10H2O, and 10 mg/L (NH4)6Mo7O24.4H2O). Subsequently 300 μL were dispensed into six deep-well 96-well plates using a MultiFlo Microplate Dispenser. The wells were supplemented with candidate elicitors from the same 502-member natural products library used above with the aid of a CyBi-Well automated liquid transfer robot. Each well received 0.85 μL of an elicitor (from a stock concentration of 10 mM). The plates were sealed with air-permeable membranes and grown at 30° C./250 rpm. After 5 days, the samples were desalted as described above for P. protegens.
# (§2) In one example, a laser ablation electrospray ionization (LAESI) DP1000 system (Protea Bioscience) coupled to a LTQ XL mass spectrometer (Thermo) was used for IMS analysis. The extension tube connecting the two instruments was kept at 130° C. with an external heater and the sample stage was kept at 10° C. during analysis. Sheath gas flow was set to 2.0 L/h. Eighty laser pulses were applied to each well to ablate samples using an 80% laser energy setting (˜850 μJ) and a 10 Hz frequency. A solution of 2:1 MeCN/water with 0.1% acetic acid (v/v) was supplied as the electrospray solution by a syringe pump running at a flow rate of 1 μL/min. The emitter was connected to high voltage power operating at +4000V or +4500V in positive ion detection mode. All data were visualized in ProteaPlot software.
# In one example, after data collection, the signals observed in each well were extracted using GMSU-LAESI software (Gubbs, Inc), which gave all m/z values and the corresponding intensities per well (i.e. per elicitor). The data were binned in 1 m/z units for 3D-plotting. Signals with an intensity lower than a set threshold were not included in the 3D plots. The data were plotted in MatLab using the bar3 function. The component 2D plots were extracted from the corresponding 3D data in MatLab and plotted in Excel. The 2D plots were normalized to the highest intensity peak. Each signal was correlated with an elicitor.
# Application of HiTES-IMS to Rare Actinomycetes. The disclosed approach was also applied to rare actinomycetes, a group of bacteria that account for some structurally fascinating and functionally potent metabolites, including the antibiotic of-last-resort vancomycin as well as the anticancer agent calicheamicin. Rare actinomycetes are an ideal test case for HiTES-IMS because in addition to their abundance of silent BGCs, they are difficult to manipulate genetically, thus all but precluding transcriptional reporter assays. Amycolatopsis keratiniphila NRRL B24117 were chosen as a test case. Its genome has not been sequenced, but efforts to find further BGCs that encode glycopeptide antibiotics (GPAs) using PCR had shown that it contains a vancomycin-like BGC, though a product has not yet been reported. A. keratiniphila was subjected to HiTES-IMS and obtained the metabolome shown, focusing on the mass range of typical GPAs (FIG. 9A). […] Additionally, a compound with m/z 1425 was induced by similar elicitors, including galangin and evodiamine (FIG. 10B). […]
# [4] = system: Streptomyces canus NRRL B3980; test: HiTES-IMS elicitor screen and flask validation, cryptic metabolites of S. canus
# Procedure: as §1, §2
# In one example, after data collection, the signals observed in each well were extracted using GMSU-LAESI software (Gubbs, Inc), which gave all m/z values and the corresponding intensities per well (i.e. per elicitor). The data were binned in 1 m/z units for 3D-plotting. […]
# Application of HiTES-IMS to Streptomycetes. […] Three clusters of peaks, representing three compound families appeared to be elicited: compounds were detected with m/z ranging from 1260-1295, which further analysis identified as the amphomycins. […] A second set of induced compounds was also detected with m/z ranging from 1220-1245. […]
# [5] = HiTES-IMS, 502-member natural products library
molecule,measurement,setting,value
O=C1c2ccccc2-n2c1nc1ccccc1c2=O [tryptanthrin],"elicitation of mass ion m/s 1810, keratinimicin A",[1],best elicitors
C[C@@]12CCc3occc3[C@H]1CC[C@@]13C[C@@H](CC[C@H]12)[C@@](O)(CO)C3 [cafestol],elicitation of orfamide production,[2],Optimal production
same,induction of orfamide A,"[2]; flask cultures, HPLC-MS, 22 μM",stimulatory activity was further confirmed
CCC1=C[C@@H]2CN(C1)Cc1c([nH]c3ccccc13)[C@@](C(=O)OC)(c1cc3c(cc1OC)N(C)[C@H]1[C@@](O)(C(=O)OC)[C@H](OC(C)=O)[C@]4(CC)C=CCN5CC[C@]31[C@@H]54)C2 [vinorelbine],elicitation of orfamide production,[2],Optimal production
CC[C@H]1[C@@H]2C[C@H]3[C@@H]4N(C)c5ccccc5[C@]45C[C@@H]([C@H]2[C@H]5O)N3[C@@H]1O [ajmaline],induction of compound with m/z 1286,[3],induced
O=c1c(O)c(-c2ccccc2)oc2cc(O)cc(O)c12 [galangin],induction of compound with m/z 1286,[3],induced
same,induction of compound with m/z 1425,[3],induced
CC[C@]12CCCN3CCc4c(n(c5ccccc45)[C@@](O)(C(=O)OC)C1)[C@@H]32 [vincamine],"elicitation of keratinimicin A and keratinicyclin B, follow-up experiments",[3],strong stimulatory activity
same,elicitation of keratinimicin A (m/z 1811) synthesis,[3],most effective elicitors
CC(C)[C@@]1(NC(=O)[C@@H]2C[C@@H]3c4cccc5[nH]cc(c45)C[C@H]3N(C)C2)O[C@@]2(O)[C@@H]3CCCN3C(=O)[C@H](Cc3ccccc3)N2C1=O [dihydroergocristine],"elicitation of keratinimicin A and keratinicyclin B, follow-up experiments",[3],strong stimulatory activity
same,elicitation of keratinimicin A (m/z 1811) synthesis,[3],most effective elicitors
same,"elicitation of mass ion m/s 1810, keratinimicin A",[1],best elicitors
C=C[C@H]1C[N@@]2CC[C@H]1C[C@H]2[C@H](O)c1ccnc2ccc(OC)cc12 [quinine],elicitation of amphomycins (m/z 1260-1295),[4]; [5],best elicitors
O=c1c(O)c(-c2ccc(O)cc2O)oc2cc(O)cc(O)c12 [morin],elicitation of amphomycins (m/z 1260-1295),[4]; [5],best elicitors
evodiamine,induction of compound with m/z 1286,[3],induced
same,induction of compound with m/z 1425,[3],induced
O=C1Cc2c([nH]c3ccc(Br)cc23)-c2ccccc2N1 [kenpaullone],elicitation of canucin A (m/z 1579) synthesis,[4]; [5],most effective elicitor
same,induction of canucin A and B,"[4]; validation, flask cultures, 17 μM",strong induction
